What follows are molecules tested against S. aureus GyrB ATPase (Staphylococcus aureus, UniProt P0A0K8) (assay: S. aureus GyrB ATPase inhibition (ammonium molybdate/malachite green phosphate detection)). Settings: 1 μM compound; S. aureus GyrB ATPase; read-out: Percent Inhibition (1 μM).
Format: biochemical
Protocol: S. aureus GyrB ATPase Inhibition Activity: Compounds may be tested for inhibition of S. aureus GyrB ATPase activity using an ammonium molybdate/malachite green-based phosphate detection assay (Lanzetta, P. A., L. J. Alvarez, P. S. Reinach, and O. A. Candia, 1979, 100: 95-97). Assays can be performed in multiwell plates in 30 μl reactions containing: 50 mM Hepes buffer pH 7.5, 75 mM ammonium acetate, 8.0 mM magnesium chloride, 0.5 mM ethylenediaminetetraacetic acid, 5% glycerol, 1.0 mM 1,4-Dithio-DL-threitol, 200 nM bovine serum albumin, 1.0 μg/ml sheared salmon sperm DNA, 250 pM E. coli GyrA, 250 pM S. aureus GyrB, 250 μM ATP, and compound in dimethylsulfoxide. Reactions can be quenched with 30 μl of ammonium molybdate/malachite green detection reagent containing 1.2 mM malachite green hydrochloride, 8.5 mM ammonium molybdate tetrahydrate, and 1 M hydrochloric acid. Plates can be read in an absorbance plate reader at 650 nm and percent inhibition values can be calculated using dimethylsulfoxide (2%)-containing reactions as 0% inhibition and EDTA-containing ([…]) reactions as 100% inhibition controls. An IC50 measurement of compound potency for each compound can be determined from reactions performed in the presence of 10 different compound concentrations.

Chain of S. aureus GyrB ATPase (P0AES4 whole entry): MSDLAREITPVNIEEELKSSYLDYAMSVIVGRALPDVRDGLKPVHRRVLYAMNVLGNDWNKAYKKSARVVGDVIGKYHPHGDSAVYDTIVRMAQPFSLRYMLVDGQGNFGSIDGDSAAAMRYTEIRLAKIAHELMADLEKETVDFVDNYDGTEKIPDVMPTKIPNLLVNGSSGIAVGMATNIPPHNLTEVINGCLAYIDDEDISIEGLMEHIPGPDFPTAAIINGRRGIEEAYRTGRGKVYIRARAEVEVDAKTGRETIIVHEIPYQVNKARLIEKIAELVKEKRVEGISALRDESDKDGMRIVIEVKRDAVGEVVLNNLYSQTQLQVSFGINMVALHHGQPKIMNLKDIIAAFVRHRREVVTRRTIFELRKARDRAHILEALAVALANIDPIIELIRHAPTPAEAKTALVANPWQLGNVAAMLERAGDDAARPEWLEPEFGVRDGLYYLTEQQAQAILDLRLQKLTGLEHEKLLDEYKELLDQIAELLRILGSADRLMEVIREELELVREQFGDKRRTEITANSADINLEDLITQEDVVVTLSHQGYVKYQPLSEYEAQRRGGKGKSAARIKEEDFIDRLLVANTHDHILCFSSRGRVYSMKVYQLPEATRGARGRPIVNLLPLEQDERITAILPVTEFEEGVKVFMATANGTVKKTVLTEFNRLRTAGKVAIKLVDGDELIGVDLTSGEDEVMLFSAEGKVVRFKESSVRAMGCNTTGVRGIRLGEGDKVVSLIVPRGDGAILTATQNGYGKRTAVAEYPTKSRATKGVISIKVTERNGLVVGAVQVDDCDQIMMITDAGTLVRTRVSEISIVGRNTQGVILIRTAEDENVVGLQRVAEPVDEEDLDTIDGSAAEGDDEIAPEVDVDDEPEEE
Chain of S. aureus GyrB ATPase (P0A0K8 whole entry): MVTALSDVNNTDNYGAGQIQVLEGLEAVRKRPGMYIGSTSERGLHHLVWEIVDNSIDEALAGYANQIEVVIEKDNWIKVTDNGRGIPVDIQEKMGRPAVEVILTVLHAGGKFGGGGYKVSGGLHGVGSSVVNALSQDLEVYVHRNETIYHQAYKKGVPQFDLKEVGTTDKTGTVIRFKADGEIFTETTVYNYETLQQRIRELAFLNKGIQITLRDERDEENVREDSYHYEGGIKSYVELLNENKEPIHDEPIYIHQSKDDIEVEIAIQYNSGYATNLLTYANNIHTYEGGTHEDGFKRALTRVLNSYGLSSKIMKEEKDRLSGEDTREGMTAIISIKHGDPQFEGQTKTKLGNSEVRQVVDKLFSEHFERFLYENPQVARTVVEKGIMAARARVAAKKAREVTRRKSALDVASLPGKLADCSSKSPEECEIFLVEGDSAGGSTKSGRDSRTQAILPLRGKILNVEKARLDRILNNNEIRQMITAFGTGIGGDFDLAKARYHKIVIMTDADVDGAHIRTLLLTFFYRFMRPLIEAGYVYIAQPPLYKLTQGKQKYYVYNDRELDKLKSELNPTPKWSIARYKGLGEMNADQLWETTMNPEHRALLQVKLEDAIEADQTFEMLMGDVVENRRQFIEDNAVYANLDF

`CCNC(=O)Nc1cc(-c2nc(C(F)(F)F)cs2)c(-c2cnc3c(c2)c(=O)c(C(=O)O)cn3CC2CCN(C)CC2)cn1` [Example 1, 6-(6-(3-Ethylureido)-4-(4-(trifluoromethyl)thiazol-2-yl)pyridin-3-yl)-1-((1-methylpiperidin-4-yl)methyl)-4-oxo-1,4-dihydro-1,8-naphthyridine-3-carboxylic acid] was tested. Which inhibition at 1 µM did it give?
Its inhibition at 1 µM is 107%.

For `CCNC(=O)Nc1cc(-c2nc(C(F)(F)F)cs2)c(-c2cnc3c(c2)c(=O)c(C(=O)O)cn3CCC2CCN(C)CC2)cn1` [Example 2, 6-(6-(3-ethylureido)-4-(4-(trifluoromethyl)thiazol-2-yl)pyridin-3-yl)-1-(2-(1-methylpiperidin-4-yl)ethyl)-4-oxo-1,4-dihydro-1,8-naphthyridine-3-carboxylic acid], which inhibition at 1 µM is on record?
Its inhibition at 1 µM is 123%.

`CCNC(=O)Nc1cc(-c2nc(C(F)(F)F)cs2)c(-c2cnc3c(c2)c(=O)c(C(=O)O)cn3CC)cn1` [Example 8, 1-Ethyl-6-{6-[(ethylcarbamoyl)amino]-4-[4-(trifluoromethyl)-1,3-thiazol-2-yl]pyridin-3-yl}-4-oxo-1,4-dihydro-1,8-naphthyridine-3-carboxylic acid] was tested. Which inhibition at 1 µM did it give?
Its inhibition at 1 µM is 98%.

Which inhibition at 1 µM does the source give for `CCNC(=O)Nc1cc(-c2nc(C(F)(F)F)cs2)c(-c2cnc3c(c2)c(=O)c(C(=O)O)cn3C2CC2)cn1` [Example 9, 1-Cyclopropyl-6-{6-[(ethylcarbamoyl)amino]-4-[4-(trifluoromethyl)-1,3-thiazol-2-yl]pyridin-3-yl}-4-oxo-1,4-dihydro-1,8-naphthyridine-3-carboxylic acid] here?
Its inhibition at 1 µM is 96%.

With `CCNC(=O)Nc1cc(-c2nc(C(F)(F)F)cs2)c(-c2cnc3c(c2)c(=O)c(C(=O)O)cn3[C@H](CO)CC(C)C)cn1` [Example 11, 6-{6-[(ethylcarbamoyl)amino]-4-[4-(trifluoromethyl)-1,3-thiazol-2-yl]pyridin-3-yl}-1-[(2S)-1-hydroxy-4-methylpentan-2-yl]-4-oxo-1,4-dihydro-1,8-naphthyridine-3-carboxylic acid] as the molecule, how does the inhibition at 1 µM read?
Its inhibition at 1 µM is 104%.

`CCNC(=O)Nc1cc(-c2nc(C(F)(F)F)cs2)c(-c2cnc3c(c2)c(=O)c(C(=O)O)cn3[C@H](CO)C(C)(C)C)cn1` [Example 12, 6-{6-[(ethylcarbamoyl)amino]-4-[4-(trifluoromethyl)-1,3-thiazol-2-yl]pyridin-3-yl}-1-[(2S)-1-hydroxy-3,3-dimethylbutan-2-yl]-4-oxo-1,4-dihydro-1,8-naphthyridine-3-carboxylic acid] was tested. Which inhibition at 1 µM did it give?
Its inhibition at 1 µM is 104%.

For `CCNC(=O)Nc1cc(-c2nc(C(F)(F)F)cs2)c(-c2cnc3c(c2)c(=O)c(C(=O)O)cn3CCOP(=O)(O)O)cn1` [Example 14, 6-{6-[(ethylcarbamoyl)amino]-4-[4-(trifluoromethyl)-1,3-thiazol-2-yl]pyridin-3-yl}-4-oxo-1-[2-(phosphonooxy)ethyl]-1,4-dihydro-1,8-naphthyridine-3-carboxylic acid], which inhibition at 1 µM is on record?
The inhibition at 1 µM was 103%.

Which inhibition at 1 µM does the source give for `CCNC(=O)Nc1cc(-c2nc(C(F)(F)F)cs2)c(-c2cnc3c(c2)c(=O)c(C(=O)O)cn3CCN(C)C)cn1` [Example 16, 1-[2-(dimethylamino)ethyl]-6-{6-[(ethylcarbamoyl)amino]-4-[4-(trifluoromethyl)-1,3-thiazol-2-yl]pyridin-3-yl}-4-oxo-1,4-dihydro-1,8-naphthyridine-3-carboxylic acid] here?
The inhibition at 1 µM was 104%.

For `CCNC(=O)Nc1cc(-c2nc(C(F)(F)F)cs2)c(-c2cnc3c(c2)c(=O)c(C(=O)OCCO)cn3CC)cn1` [Example 17, 2-hydroxyethyl 1-ethyl-6-{6-[(ethylcarbamoyl)amino]-4-[4-(trifluoromethyl)-1,3-thiazol-2-yl]pyridin-3-yl}-4-oxo-1,4-dihydro-1,8-naphthyridine-3-carboxylate], which inhibition at 1 µM is on record?
The inhibition at 1 µM was 106%.

How did the inhibition at 1 µM turn out when `CCNC(=O)Nc1cc(-c2nc(C(F)(F)F)cs2)c(-c2cnc3c(c2)c(=O)c(C(=O)OCCCO)cn3CC)cn1` [Example 18, 3-hydroxypropyl 1-ethyl-6-{6-[(ethylcarbamoyl)amino]-4-[4-(trifluoromethyl)-1,3-thiazol-2-yl]pyridin-3-yl}-4-oxo-1,4-dihydro-1,8-naphthyridine-3-carboxylate] was run?
Its inhibition at 1 µM is 108%.

For `CCNC(=O)Nc1cc(-c2nc(C(F)(F)F)cs2)c(-c2cnc3c(c2)c(=O)c(C(=O)OCCCOP(=O)(O)O)cn3CC)cn1` [Example 22, 3-(Phosphonooxy)propyl 1-ethyl-6-{6-[(ethylcarbamoyl)amino]-4-[4-(trifluoromethyl)-1,3-thiazol-2-yl]pyridin-3-yl}-4-oxo-1,4-dihydro-1,8-naphthyridine-3-carboxylate], which inhibition at 1 µM is on record?
The inhibition at 1 µM was 104%.

How did the inhibition at 1 µM turn out when `CCNC(=O)Nc1cc(-c2nc(C(F)(F)F)cs2)c(-c2cnc3c(c2)c(=O)c(C(=O)O)cn3[C@H](COP(=O)(O)O)CC(C)C)cn1` [Example 25, 6-{6-[(ethylcarbamoyl)amino]-4-[4-(trifluoromethyl)-1,3-thiazol-2-yl]pyridin-3-yl}-1-[(2S)-4-methyl-1-(phosphonooxy)pentan-2-yl]-4-oxo-1,4-dihydro-1,8-naphthyridine-3-carboxylic acid] was run?
The inhibition at 1 µM was 108%.

How did the inhibition at 1 µM turn out when `CCNC(=O)Nc1cc(-c2nc(C(F)(F)F)cs2)c(-c2cnc3c(c2)c(=O)c(C(=O)O)cn3[C@H]2CCCN(CCN3CCOCC3)C2)cn1` [Example 31] was run?
The inhibition at 1 µM was 104%.

`CCNC(=O)Nc1cc(-c2nc(C(F)(F)F)cs2)c(-c2cnc3c(c2)c(=O)c(C(=O)O)cn3C[C@@H]2CCCN2CC)cn1` [Example 32] was tested. Which inhibition at 1 µM did it give?
Its inhibition at 1 µM is 103%.

How did the inhibition at 1 µM turn out when `CCNC(=O)Nc1cc(-c2nc(C(F)(F)F)cs2)c(-c2cnc3c(c2)c(=O)c(C(=O)O)cn3C[C@H]2CCCN2CC)cn1` [Example 33] was run?
Its inhibition at 1 µM is 102%.

Which inhibition at 1 µM does the source give for `CCNC(=O)Nc1cc(-c2nc(CC(C)C)cs2)c(-c2cnc3c(c2)c(=O)c(C(=O)O)cn3[C@H]2CCCN(CCN(CC)CC)C2)cn1` [Example 34, (S)-1-(1-(2-(diethylamino)ethyl)piperidin-3-yl)-6-(6-(3-ethylureido)-4-(4-isobutylthiazol-2-yl)pyridin-3-yl)-4-oxo-1,4-dihydro-1,8-naphthyridine-3-carboxylic acid] here?
The inhibition at 1 µM was 103%.

Which inhibition at 1 µM does the source give for `CCNC(=O)Nc1cc(-c2nc(-c3ccccc3)cs2)c(-c2cnc3c(c2)c(=O)c(C(=O)O)cn3[C@H]2CCCN(CCN(CC)CC)C2)cn1` [Example 35] here?
The inhibition at 1 µM was 102%.

For `CCNC(=O)Nc1cc(-c2nc(C(F)(F)F)cs2)c(-c2cc3c(=O)c(C(=O)O)cn(C[C@@H]4CCCN4CC)c3nc2NCCN(C)C)cn1` [Example 36, 7-(2-(dimethylamino)ethylamino)-1-(((S)-1-ethylpyrrolidin-2-yl)methyl)-6-(6-(3-ethylureido)-4-(4-(trifluoromethyl)thiazol-2-yl)pyridin-3-yl)-4-oxo-1,4-dihydro-1,8-naphthyridine-3-carboxylic acid], which inhibition at 1 µM is on record?
The inhibition at 1 µM was 100%.

`CCNC(=O)Nc1cc(-c2nc(C(F)(F)F)cs2)c(-c2cc3c(=O)c(C(=O)O)cn(CC)c3nc2NCCN(C)C)cn1` [Example 37, 7-(2-(dimethylamino)ethylamino)-1-ethyl-6-(6-(3-ethylureido)-4-(4-(trifluoromethyl)thiazol-2-yl)pyridin-3-yl)-4-oxo-1,4-dihydro-1,8-naphthyridine-3-carboxylic acid] was tested. Which inhibition at 1 µM did it give?
The inhibition at 1 µM was 109%.

With `CCNC(=O)Nc1cc(-c2nc(C(F)(F)F)cs2)c(-c2cc3c(=O)c(C(=O)O)cn(CC)c3nc2N2CCN(C)CC2)cn1` [Example 38, 1-ethyl-6-(6-(3-ethylureido)-4-(4-(trifluoromethyl)thiazol-2-yl)pyridin-3-yl)-7-(4-methylpiperazin-1-yl)-4-oxo-1,4-dihydro-1,8-naphthyridine-3-carboxylic acid] as the molecule, how does the inhibition at 1 µM read?
The inhibition at 1 µM was 101%.

Which inhibition at 1 µM does the source give for `CCNC(=O)Nc1cc(-c2nc(C(F)(F)F)cs2)c(-c2cc3c(=O)c(C(=O)O)cn(C4CCCCC4)c3cn2)cn1` [Example 39, 1-cyclohexyl-6-(6-(3-ethylureido)-4-(4-(trifluoromethyl)thiazol-2-yl)pyridin-3-yl)-4-oxo-1,4-dihydro-1,7-naphthyridine-3-carboxylic acid] here?
The inhibition at 1 µM was 102%.

With `CCNC(=O)Nc1cc(-c2nc(C(F)(F)F)cs2)c(-c2cc3c(=O)c(C(=O)O)cn(CCC(C)(C)C)c3cn2)cn1` [Example 40] as the molecule, how does the inhibition at 1 µM read?
The inhibition at 1 µM was 103%.

With `CCNC(=O)Nc1cc(-c2nc(C(F)(F)F)cs2)c(-c2cc3c(=O)c(C(=O)O)cn(C[C@H]4CCCN4CC)c3cn2)cn1` [Example 41] as the molecule, how does the inhibition at 1 µM read?
Its inhibition at 1 µM is 102%.

For `CCNC(=O)Nc1cc(-c2nc(C(F)(F)F)cs2)c(-c2cc3c(=O)c(C(=O)O)cn(C[C@@H]4CCCN4CC)c3cn2)cn1` [Example 42], which inhibition at 1 µM is on record?
The inhibition at 1 µM was 103%.

With `CCNC(=O)Nc1cc(-c2nc(C(F)(F)F)cs2)c(-c2cc3c(=O)c(C(=O)O)cn(CC(C)N4CCOCC4)c3cn2)cn1` (stereo not shown) [Example 43] as the molecule, how does the inhibition at 1 µM read?
The inhibition at 1 µM was 94%.

For `CCNC(=O)Nc1cc(-c2nc(C(F)(F)F)cs2)c(-c2cc3c(=O)c(C(=O)O)cn(C(COC)COC)c3cn2)cn1` [Example 44], which inhibition at 1 µM is on record?
The inhibition at 1 µM was 102%.

Same assay, conditions: read-out: Percent Inhibition (1 μM)

`CCNC(=O)Nc1cc(-c2nc(C(F)(F)F)cs2)c(-c2cnc3c(c2)c(=O)c(C(=O)OCCOP(=O)(O)O)cn3CC)cn1` [Example 20, 2-(phosphonooxy)ethyl 1-ethyl-6-{6-[(ethylcarbamoyl)amino]-4-[4-(trifluoromethyl)-1,3-thiazol-2-yl]pyridin-3-yl}-4-oxo-1,4-dihydro-1,8-naphthyridine-3-carboxylate] was tested. Which inhibition at 1 µM did it give?
Its inhibition at 1 µM is 104%.

How did the inhibition at 1 µM turn out when `CCNC(=O)Nc1cc(-c2nc(C(F)(F)F)cs2)c(-c2cnc3c(c2)c(=O)c(C(=O)O)cn3[C@@H]2CCCN(CCN3CCOCC3)C2)cn1` [Example 29] was run?
Its inhibition at 1 µM is 105%.
